From patent publication US20090269419A1, “COSMETIC COMPOSITION BASED ON POLYUNSATURATED FATTY ACIDS AND ITS USES” (priority 2006, published 2009)

What was measured:
[1] = system: melanocytes; experiment: Reduction of intra-cellular melanin; type: cell-based; details: AA-2G 2 mM for 48 hours
Experimental: • a) Culturing of melanocytes for 48 hours • b) Addition of AA-2G 2 mM for 48 hours • c) Lysis of the cells in order to read the quantity of melanin contained.

[2] = system: melanocytes; experiment: Inhibition of melanogenesis stimulated by theophylline; type: cell-based; details: AA-2G 2.5 mM for 12 hours; theophylline 0.5 mM
Experimental: • a) Culturing of melanocytes with AA-2G 2.5 mM+control without AA-2G for 12 hours • b) Stimulation of melanogenesis by theophylline (0.5 mM) • c) Detection of melanin by colorimetry (photos).

[3] = system: collagenase; experiment: Anti-collagenase activity on frozen sections, collagen stained with picro-sirius and image analysis; type: biochemical
Experimental: The anti-collagenase activity test was carried out on ds-es frozen sections. The products to be tested were mixed (volume/volume) with a collagenase solution at 60 U/ml. Incubation took place in a humid chamber for 2 h at 37° C. The remaining collagen was stained with picro-sirius and quantified by image analysis.
• 1. Control TRIS buffer • 2. Collagenase […] • 3. Reference R: phenanthroline • 4. Reference R: phenanthroline+collagenase 60 U/ml • 5. Product P2: Immortelle very precious cream ref 05.34.A • 6. Product P2: Immortelle very precious cream ref 05.34.A+collagenase 60 U/ml
For each sample, 4 microscopic fields were analysed as a function of the size of the sample. Each microscopic field is digitised and analysed according to the method described below using the LEICA QWIN software.
1. Digitised Image • Staining of the collagen network
2. Detection of the Collagen by Thresholding • Binary mask 0
3. Determination of the Zone of Interest • Exclusion of the epidermis and annexes • Inversion of the mask so as to retain only the zone corresponding to the dermis • Binary mask 2
4. Selection of Collagen in the Zone of Interest • Binary mask 3=2+0
5. Surface measurement Measurement of binary mask 3 • Measurement of binary mask 2
6. Results Exporting of results to Excel • Calculation of the percentage of surface area occupied by collagen in the dermis

[4] = system: keratinocytes; experiment: Stimulation of ATP synthesis, intracellular ATP content by bioluminescence; type: cell-based; details: 0.01%; incubation for 6 hours
Experimental: After incubation for 6 hours, the intracellular ATP content was measured by bioluminescence using the kit “ATP Monitoring Kit” (LABSYSTEMS) according to the manufacturer's instructions. The results were expressed in mM of ATP and as a percentage of the control group.
Effect of Sepitonic M3 and of cytochrome C on the ATP content of keratinocytes after incubation for 6 hours: […]

## O=C1O[C@H]([C@@H](O)CO)C(O)=C1O[C@H]1O[C@H](CO)[C@@H](O)[C@H](O)[C@H]1O [AA-2G, O-α-D-glucopyranosyl-(1→2)-L-ascorbic acid]
[1]
  reduction of intra-cellular melanin: 60%
[2]
  quantity of developed melanin versus untreated melanocytes (photos): lesser quantity of developed melanin

## c1cnc2c(c1)ccc1cccnc12 [phenanthroline]
[3]
  anti-collagenase activity, in words: completely inhibits the effect of collagenase
[3]; With collagenase (60 U/ml mixed volume/volume), 2 h at 37° C.
  percentage of surface area occupied by collagen in the dermis, Mean (typical variance): 90.4 (3.8) %
[3]; without collagenase
  histological examination of the collagen: well structured
  percentage of surface area occupied by collagen in the dermis, Mean (typical variance): 88.7 (1.5) %

## Cytochrome C: reference in the keratinocyte ATP test
[4]
  ATP content of keratinocytes, percentage of the control group (ES): ES 110%
